From patent US10414811B2, “Protease-resistant lipidated GLP-1 analogs” (MEDIMMUNE LIMITED, priority 2015, dated 2019)
Read-outs that look alike come from different tables or passages of the source. Numbered stars: 1 amine (or outer) side, 2 acyl side, 3 side chain; on linkers, the order of the positions; unused ones are H or OH. Square brackets hold non-standard residues; d marks the D form. Side chains are listed from the residue outwards. Peptide text beside a SMILES is read from it. * marks the point of attachment. C18 diacid = O=C(O)CCCCCCCCCCCCCCCCC(=O)*; γGlu = O=C(O)[C@H](CCC(=O)[*:2])N[*:1]; αMeF = C[C@](N)(Cc1ccccc1)C(=O)O; αMeK = C[C@](N)(CCCCN)C(=O)O; αMeS = C[C@](N)(CO)C(=O)O; AEEA = NCCOCCOCC(=O)O; Aib = CC(C)(N)C(=O)O

What was measured:
Assay type in all cases: cell-based
[1] = target: T1, human GLP-1 receptor (GLP-1R) (Homo sapiens, UniProt P43220); experiment: cAMP assay, human GLP-1R cells
T1 construct: expressed in transfected cells
T1 sequence (P43220 24-463): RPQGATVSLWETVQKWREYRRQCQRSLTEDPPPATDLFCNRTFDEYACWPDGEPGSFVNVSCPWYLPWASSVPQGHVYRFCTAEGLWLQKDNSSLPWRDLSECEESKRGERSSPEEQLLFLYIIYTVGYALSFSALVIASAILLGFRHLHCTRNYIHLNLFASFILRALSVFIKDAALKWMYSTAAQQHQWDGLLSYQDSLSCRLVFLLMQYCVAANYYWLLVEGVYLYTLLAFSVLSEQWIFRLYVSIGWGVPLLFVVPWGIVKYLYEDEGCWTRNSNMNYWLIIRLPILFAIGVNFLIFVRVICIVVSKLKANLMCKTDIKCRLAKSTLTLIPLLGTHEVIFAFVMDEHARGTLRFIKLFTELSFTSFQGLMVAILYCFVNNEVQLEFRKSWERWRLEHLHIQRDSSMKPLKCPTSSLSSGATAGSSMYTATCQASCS
How it was run: (§1)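 Peptide-stimulated cAMP measured by two-step HTRF after a 30 min room-temperature incubation with receptor-expressing cells (hGLP-1R, hGIPR at 1×10^5 cells/ml; hGCGR at 2×10^5 cells/ml). Duplicate dilutions; EC50 from 4-parameter logistic fit of % Delta F.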

[2] = target: T2, human glucose-dependent insulinotropic peptide receptor (GIPR) (Homo sapiens, UniProt P48546); experiment: cAMP assay, human GIPR cells; settings: cAMP assay
T2 construct: expressed in transfected cells
T2 sequence (P48546 22-466): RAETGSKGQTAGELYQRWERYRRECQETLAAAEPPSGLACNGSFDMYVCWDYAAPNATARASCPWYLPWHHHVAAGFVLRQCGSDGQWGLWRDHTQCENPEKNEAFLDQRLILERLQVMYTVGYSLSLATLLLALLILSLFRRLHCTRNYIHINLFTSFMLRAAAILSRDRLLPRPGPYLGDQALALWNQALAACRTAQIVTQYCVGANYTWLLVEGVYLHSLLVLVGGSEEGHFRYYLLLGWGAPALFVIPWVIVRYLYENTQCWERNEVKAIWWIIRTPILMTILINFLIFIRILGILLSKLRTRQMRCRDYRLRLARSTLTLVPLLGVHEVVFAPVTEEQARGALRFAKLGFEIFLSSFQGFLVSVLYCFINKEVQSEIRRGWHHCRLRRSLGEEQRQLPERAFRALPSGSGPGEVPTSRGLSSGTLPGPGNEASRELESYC
How it was run: as §1

[3] = target: T3, GLP-1R (INS1e assay) (Rattus norvegicus, UniProt P32301); experiment: INS1e assay, cAMP activity at GLP-1R; settings: mono-lipidated peptides
T3 construct: endogenous in cells; host or cells: INS-1E cells
T3 sequence (P32301 22-463): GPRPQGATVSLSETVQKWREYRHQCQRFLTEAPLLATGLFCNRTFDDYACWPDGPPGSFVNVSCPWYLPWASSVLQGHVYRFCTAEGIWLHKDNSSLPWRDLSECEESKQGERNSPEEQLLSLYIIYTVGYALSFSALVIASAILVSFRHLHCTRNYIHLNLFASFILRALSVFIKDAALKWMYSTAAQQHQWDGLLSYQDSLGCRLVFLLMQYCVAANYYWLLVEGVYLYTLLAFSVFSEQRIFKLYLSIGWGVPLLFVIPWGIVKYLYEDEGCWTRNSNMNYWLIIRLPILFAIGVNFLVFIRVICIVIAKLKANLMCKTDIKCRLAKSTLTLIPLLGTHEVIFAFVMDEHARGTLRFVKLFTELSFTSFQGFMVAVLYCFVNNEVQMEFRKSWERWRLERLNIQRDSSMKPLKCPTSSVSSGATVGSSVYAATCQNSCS
How it was run: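 It pairs cAMP-d2 acceptor with anti-cAMP cryptate donor, both prepared 1/20 in conjugate/lysis buffer, applied as a two-step protocol.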

[4] = target: T4, human glucagon receptor (GCGR) (Homo sapiens, UniProt P47871); experiment: cAMP assay, human GCGR cells; settings: cAMP assay
T4 construct: expressed in transfected cells
T4 sequence (P47871 26-477): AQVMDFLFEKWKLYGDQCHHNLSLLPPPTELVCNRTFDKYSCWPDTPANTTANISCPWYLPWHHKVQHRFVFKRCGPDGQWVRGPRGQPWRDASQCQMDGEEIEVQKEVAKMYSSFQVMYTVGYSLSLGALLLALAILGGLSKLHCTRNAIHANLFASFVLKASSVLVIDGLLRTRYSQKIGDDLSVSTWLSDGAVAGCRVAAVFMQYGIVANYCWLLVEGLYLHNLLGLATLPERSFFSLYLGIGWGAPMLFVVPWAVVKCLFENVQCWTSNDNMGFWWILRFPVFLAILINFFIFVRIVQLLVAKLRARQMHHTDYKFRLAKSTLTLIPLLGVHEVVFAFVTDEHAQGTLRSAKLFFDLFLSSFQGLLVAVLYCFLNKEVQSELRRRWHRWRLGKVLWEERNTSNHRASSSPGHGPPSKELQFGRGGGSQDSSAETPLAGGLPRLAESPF
How it was run: as §1

[5] = cAMP assay, first determination (n1), read-out: Primary assay EC50 GLP-1R n1
[6] = cAMP assay, second determination (n2), read-out: Primary assay EC50 GLP-1R n2
[7] = mean of n1 and n2, read-out: Mean pM GLP-1R
[8] = first determination (n1), read-out: Primary assay EC50 GIP-R (n1)
[9] = second determination (n2), read-out: Primary assay EC50 GIP-R (n2)
[10] = mean of n1 and n2, read-out: INS1e assay EC50 Mean pM GLP-1R
[11] = replicate n1, read-out: INS1e assay EC50 GLP-1R n1
[12] = replicate n2, read-out: INS1e assay EC50 GLP-1R n2
[13] = first determination (n1), read-out: Primary assay EC50 Gluc-R (n1)
[14] = second determination (n2), read-out: Primary assay EC50 Gluc-R (n2)

Row | SMILES | EC50 [1, 5] [pM] | EC50 [1, 6] [pM] | EC50 [1, 7] [pM] | EC50 [2, 8] [nM] | EC50 [2, 9] [nM] | EC50 [3, 10] [pM] | EC50 [3, 11] [pM] | EC50 [3, 12] [pM] | EC50 [4, 13] [nM] | EC50 [4, 14] [nM]
1 | CC[C@H](C)[C@H](NC(=O)[C@](C)(Cc1ccccc1)NC(=O)[C@H](CCCCNC(=O)COCCOCCNC(=O)COCCOCCNC(=O)CC[C@H](NC(=O)CCCCCCCCCCCCCCCCC(=O)O)C(=O)O)NC(=O)[C@](C)(CCCCN)NC(=O)[C@H](C)NC(=O)[C@H](C)NC(=O)[C@H](CCC(=O)O)NC(=O)CNC(=O)[C@H](CCC(=O)O)NC(=O)[C@H](CC(C)C)NC(=O)[C@](C)(Cc1ccccc1)NC(=O)[C@H](CO)NC(=O)[C@](C)(CO)NC(=O)[C@@H](NC(=O)[C@H](CC(=O)O)NC(=O)[C@H](CO)NC(=O)[C@@H](NC(=O)[C@](C)(Cc1ccccc1)NC(=O)[C@H](CO)NC(=O)CNC(=O)[C@H](CCC(=O)O)NC(=O)C(C)(C)NC(=O)[C@@H](N)Cc1c[nH]cn1)[C@@H](C)O)C(C)C)C(=O)N[C@@H](C)C(=O)N[C@@](C)(Cc1ccccc1)C(=O)N[C@H](C(=O)N[C@H](C(=O)N[C@@](C)(CCCCN)C(=O)NCC(=O)NCC(N)=O)C(C)C)C(C)C [compound 108] (H-H[Aib]EGS[αMeF]TSDV[αMeS]S[αMeF]LEGEAA[αMeK]K([AEEA-AEEA-γGlu-C18 diacid])[αMeF]IA[αMeF]VV[αMeK]GG-NH2; N-terminus assumed) | 3.8 | 3.46 | 4 | ≥ 25 | ≥ 25.4 | 248 | 38 | 458 | ≥ 25 | ≥ 25.4
2 | CC[C@H](C)[C@H](NC(=O)[C@](C)(Cc1ccccc1)NC(=O)[C@H](CCC(=O)O)NC(=O)[C@](C)(CCCCN)NC(=O)[C@H](C)NC(=O)[C@H](CCCCNC(=O)COCCOCCNC(=O)COCCOCCNC(=O)CC[C@H](NC(=O)CCCCCCCCCCCCCCCCC(=O)O)C(=O)O)NC(=O)[C@H](CCC(=O)O)NC(=O)CNC(=O)[C@H](CCC(=O)O)NC(=O)[C@H](CC(C)C)NC(=O)[C@](C)(Cc1ccccc1)NC(=O)[C@H](CO)NC(=O)[C@](C)(CO)NC(=O)[C@@H](NC(=O)[C@H](CC(=O)O)NC(=O)[C@H](CO)NC(=O)[C@@H](NC(=O)[C@](C)(Cc1ccccc1)NC(=O)[C@H](CO)NC(=O)CNC(=O)[C@H](CCC(=O)O)NC(=O)C(C)(C)NC(=O)[C@@H](N)Cc1c[nH]cn1)[C@@H](C)O)C(C)C)C(=O)N[C@@H](C)C(=O)N[C@@](C)(Cc1ccccc1)C(=O)N[C@H](C(=O)N[C@H](C(=O)N[C@@](C)(CCCCN)C(=O)NCC(=O)NCC(N)=O)C(C)C)C(C)C [compound 111] (H-H[Aib]EGS[αMeF]TSDV[αMeS]S[αMeF]LEGEK([AEEA-AEEA-γGlu-C18 diacid])A[αMeK]E[αMeF]IA[αMeF]VV[αMeK]GG-NH2) | 18 |  |  | ≥ 25 | ≥ 25 | 806 | 501 | 1110 | ≥ 25 | ≥ 25
3 | CC[C@H](C)[C@H](NC(=O)[C@](C)(Cc1ccccc1)NC(=O)[C@H](CCC(=O)O)NC(=O)[C@](C)(CCCCN)NC(=O)[C@H](C)NC(=O)[C@H](C)NC(=O)[C@H](CCC(=O)O)NC(=O)CNC(=O)[C@H](CCC(=O)O)NC(=O)[C@H](CC(C)C)NC(=O)[C@](C)(Cc1ccccc1)NC(=O)[C@H](CO)NC(=O)[C@](C)(CO)NC(=O)[C@H](CCCCNC(=O)COCCOCCNC(=O)COCCOCCNC(=O)CC[C@H](NC(=O)CCCCCCCCCCCCCCCCC(=O)O)C(=O)O)NC(=O)[C@H](CC(=O)O)NC(=O)[C@H](CO)NC(=O)[C@@H](NC(=O)[C@](C)(Cc1ccccc1)NC(=O)[C@H](CO)NC(=O)CNC(=O)[C@H](CCC(=O)O)NC(=O)C(C)(C)NC(=O)[C@@H](N)Cc1c[nH]cn1)[C@@H](C)O)C(=O)N[C@@H](C)C(=O)N[C@@](C)(Cc1ccccc1)C(=O)N[C@H](C(=O)N[C@H](C(=O)N[C@@](C)(CCCCN)C(=O)NCC(=O)NCC(N)=O)C(C)C)C(C)C [compound 119] (H-H[Aib]EGS[αMeF]TSDK([AEEA-AEEA-γGlu-C18 diacid])[αMeS]S[αMeF]LEGEAA[αMeK]E[αMeF]IA[αMeF]VV[αMeK]GG-NH2; N-terminus assumed) | 18 | 15.7 | 17 | ≥ 25 | ≥ 25.2 | 2080 | 2710 | 1450 | ≥ 25 | ≥ 25.2

Now from value to compound:

Row | EC50 [1, 5] [pM] | EC50 [1, 6] [pM] | EC50 [1, 7] [pM] | EC50 [2, 8] [nM] | EC50 [2, 9] [nM] | EC50 [3, 10] [pM] | EC50 [3, 11] [pM] | EC50 [3, 12] [pM] | EC50 [4, 13] [nM] | EC50 [4, 14] [nM] | SMILES
4 |  | 5.07 |  | ≥ 25 | ≥ 25.4 | 385 | 294 | 476 | ≥ 25 | ≥ 25.4 | CC[C@H](C)[C@H](NC(=O)[C@](C)(Cc1ccccc1)NC(=O)[C@H](CCC(=O)O)NC(=O)[C@](C)(CCCCN)NC(=O)[C@H](C)NC(=O)[C@H](C)NC(=O)[C@H](CCCCNC(=O)COCCOCCNC(=O)COCCOCCNC(=O)CC[C@H](NC(=O)CCCCCCCCCCCCCCCCC(=O)O)C(=O)O)NC(=O)CNC(=O)[C@H](CCC(=O)O)NC(=O)[C@H](CC(C)C)NC(=O)[C@](C)(Cc1ccccc1)NC(=O)[C@H](CO)NC(=O)[C@](C)(CO)NC(=O)[C@@H](NC(=O)[C@H](CC(=O)O)NC(=O)[C@H](CO)NC(=O)[C@@H](NC(=O)[C@](C)(Cc1ccccc1)NC(=O)[C@H](CO)NC(=O)CNC(=O)[C@H](CCC(=O)O)NC(=O)C(C)(C)NC(=O)[C@@H](N)Cc1c[nH]cn1)[C@@H](C)O)C(C)C)C(=O)N[C@@H](C)C(=O)N[C@@](C)(Cc1ccccc1)C(=O)N[C@H](C(=O)N[C@H](C(=O)N[C@@](C)(CCCCN)C(=O)NCC(=O)NCC(N)=O)C(C)C)C(C)C [compound 112] (H-H[Aib]EGS[αMeF]TSDV[αMeS]S[αMeF]LEGK([AEEA-AEEA-γGlu-C18 diacid])AA[αMeK]E[αMeF]IA[αMeF]VV[αMeK]GG-NH2; N-terminus assumed)
5 | 11 | 7.1 | 9 | ≥ 28 | ≥ 28 | 122 | 129 | 115 | ≥ 28 | ≥ 28 | CCCCCCCCCCCC(=O)NCCCCCC(=O)NCCCCCC(=O)NCCCC[C@H](NC(=O)[C@H](C)NC(=O)[C@H](C)NC(=O)[C@H](CCC(=O)O)NC(=O)CNC(=O)[C@H](CCC(=O)O)NC(=O)[C@H](CC(C)C)NC(=O)[C@](C)(Cc1ccccc1)NC(=O)[C@H](CO)NC(=O)[C@](C)(CO)NC(=O)[C@@H](NC(=O)[C@H](CC(=O)O)NC(=O)[C@H](CO)NC(=O)[C@@H](NC(=O)[C@](C)(Cc1ccccc1)NC(=O)[C@H](CO)NC(=O)CNC(=O)[C@H](CCC(=O)O)NC(=O)C(C)(C)NC(=O)[C@@H](N)Cc1c[nH]cn1)[C@@H](C)O)C(C)C)C(=O)N[C@@H](CCC(=O)O)C(=O)N[C@@](C)(Cc1ccccc1)C(=O)N[C@H](C(=O)N[C@@H](C)C(=O)N[C@@](C)(Cc1ccccc1)C(=O)N[C@H](C(=O)N[C@H](C(=O)N[C@@](C)(CCCCN)C(=O)NCC(=O)NCC(N)=O)C(C)C)C(C)C)[C@@H](C)CC [compound 132]
6 | 7 | 4.9 | 6 | ≥ 28 | ≥ 28 | 123 | 168 | 77.6 | ≥ 28 | ≥ 28 | CCCCCCCCCCCC(=O)NCCOCCOCC(=O)NCCCC[C@H](NC(=O)[C@H](C)NC(=O)[C@H](C)NC(=O)[C@H](CCC(=O)O)NC(=O)CNC(=O)[C@H](CCC(=O)O)NC(=O)[C@H](CC(C)C)NC(=O)[C@](C)(Cc1ccccc1)NC(=O)[C@H](CO)NC(=O)[C@](C)(CO)NC(=O)[C@@H](NC(=O)[C@H](CC(=O)O)NC(=O)[C@H](CO)NC(=O)[C@@H](NC(=O)[C@](C)(Cc1ccccc1)NC(=O)[C@H](CO)NC(=O)CNC(=O)[C@H](CCC(=O)O)NC(=O)C(C)(C)NC(=O)[C@@H](N)Cc1c[nH]cn1)[C@@H](C)O)C(C)C)C(=O)N[C@@H](CCC(=O)O)C(=O)N[C@@](C)(Cc1ccccc1)C(=O)N[C@H](C(=O)N[C@@H](C)C(=O)N[C@@](C)(Cc1ccccc1)C(=O)N[C@H](C(=O)N[C@H](C(=O)N[C@@](C)(CCCCN)C(=O)NCC(=O)NCC(N)=O)C(C)C)C(C)C)[C@@H](C)CC [compound 134]
